From patent US20080248134A1, “Oral compositions, use and combinations of N-[2-(dimethylamino)ethyl]-2,6 dimethyl-1-oxo-1,2-dihydrobenzo[b]-1,6-naphthyridine-4-carboxamide and closely related analogues thereof” (Auckland Uniservices Limited, priority 2005, published 2008)

Columns and labels:
[1] = tested on: HCT116 human colon carcinoma line, TP53 mutant; experiment: In vitro cell survival, clonogenic assay; format: cell-based; details: p53 mutant HCT116, 6 hours exposure
Experimental: (§1) Two HCT116 human colon carcinoma lines, one with TP53 wild type status and one with TP53 mutant status, were exposed to the compound of Formula II for 6 hours. The cells were washed free of drug and surviving cells were measured by clonogenic assay. The concentration for maximal reduction of cell survival was 1% for p53 wild-type cells and 5% for p53 mutant cells. The cytotoxicity of the compound of the present invention was also tested in three Jurkat leukaemia lines, two of which, JLA and JLD, are resistant to topoisomerase inhibitors because of low cellular levels of topoisomerase II.

[2] = tested on: HCT116 human colon carcinoma line, TP53 wild type; experiment: In vitro cell survival, clonogenic assay; format: cell-based; details: p53 wild-type HCT116, 6 hours exposure
Experimental: as §1

AuxB1 = experiment: In vitro susceptibility to multidrug resistance, continuous exposure IC50; format: cell-based, Chinese Hamster; details: Cricetulus griseus, AuxB1 (no multidrug resistance)
Experimental: (§2) Multidrug resistance mediated by p-glycoprotein and related transport proteins is an important means by which cancer cells evade cytotoxic drugs. […] IC50 values of several drugs were measured in continuous exposure assays in these two cell lines. The resistance factor was calculated as the ratio of these values. High values indicate high susceptibility to resistance.

CHrC5 = experiment: as above; format: cell-based, Chinese Hamster
Experimental: as §2

[3] = tested on: melanoma tissue taken from a patient; experiment: Response of a melanoma taken directly from a cancer patient, xenograft in immunodeficient mice; format: in vivo, human; details: two doses of 5.9 mg/kg, 7 days apart
Experimental: Metastatic melanoma is particularly resistant to current chemotherapy. Melanoma tissue taken from a patient at surgery was implanted subcutaneously in immunodeficient mice. After three months, the tumour in one animal was excised and transferred to further immunodeficient mice. The tumours were grown to a diameter of approximately 4 mm before treatment and the compound of Formula II was administered in two doses of 5.9 mg/kg, 7 days apart.

HCT116p53− = experiment: In vitro cell proliferation assay, continuous drug exposure; format: cell-based; details: Homo sapiens, continuous drug exposure 3-5 days
From the text: (§3) The results with the JLA and JLD lines, which have reduced topoisomerase II content as compared to the parental Jurkat line, indicate that the IC50 value of the compound is increased with decreased topoisomerase content. This is also the case for etoposide, amsacrine, DACA and doxorubicin.

JLA = experiment: as above; format: cell-based; details: Homo sapiens; JLA (reduced topoisomerase II), continuous drug exposure 3-5 days
From the text: as §3

Jurkat = experiment: as above; format: cell-based; details: Homo sapiens, continuous drug exposure 3-5 days
From the text: as §3

JLD = experiment: as above; format: cell-based; details: Homo sapiens; JLD (reduced topoisomerase II), continuous drug exposure 3-5 days
From the text: as §3

HCT116p53+ = experiment: as above; format: cell-based; details: Homo sapiens, continuous drug exposure 3-5 days
From the text: as §3

Jurkat LA = experiment: Human tumour xenograft; format: in vivo; set-up: key to Activity: Active: NCI Criterion for activity tumour volume T/C ≦ 40%; Inactive: NCI Criterion for activity tumour volume T/C ≦ 40%; details: Leukaemia
Experimental: (§4) The compound of Formula II was evaluated in a number of xenografts using cell lines derived from cervical, endometrial, lung and colon carcinomas, leukaemia and melanoma (Table 3). These studies indicate that the compound according to the present invention has significant activity in xenografts.

H460 = experiment: Human tumour xenograft; format: in vivo; set-up: key to Activity: Active: NCI Criterion for activity tumour volume T/C ≦ 40%; Inactive: NCI Criterion for activity tumour volume T/C ≦ 40%; details: H460, Lung
Experimental: as §4

NZEN1 = experiment: Human tumour xenograft; format: in vivo; set-up: key to Activity: Active: NCI Criterion for activity tumour volume T/C ≦ 40%; Inactive: NCI Criterion for activity tumour volume T/C ≦ 40%; details: NZEN1, Endometrium
Experimental: as §4

NZMp1 = experiment: Human tumour xenograft; format: in vivo; set-up: key to Activity: Active: NCI Criterion for activity tumour volume T/C ≦ 40%; Inactive: NCI Criterion for activity tumour volume T/C ≦ 40%; details: NZMp1, Melanoma
Experimental: as §4

NZM10 = experiment: Human tumour xenograft; format: in vivo; set-up: key to Activity: Active: NCI Criterion for activity tumour volume T/C ≦ 40%; Inactive: NCI Criterion for activity tumour volume T/C ≦ 40%; details: NZM10, Melanoma
Experimental: as §4

NZC1 = experiment: Human tumour xenograft; format: in vivo; set-up: key to Activity: Active: NCI Criterion for activity tumour volume T/C ≦ 40%; Inactive: NCI Criterion for activity tumour volume T/C ≦ 40%; details: NZC1, Cervix
Experimental: as §4

NZMp2 = experiment: Human tumour xenograft; format: in vivo; set-up: key to Activity: Active: NCI Criterion for activity tumour volume T/C ≦ 40%; Inactive: NCI Criterion for activity tumour volume T/C ≦ 40%; details: NZMp2, Melanoma
Experimental: as §4

NZM3 = experiment: Human tumour xenograft; format: in vivo; set-up: key to Activity: Active: NCI Criterion for activity tumour volume T/C ≦ 40%; Inactive: NCI Criterion for activity tumour volume T/C ≦ 40%; details: NZM3, Melanoma
Experimental: as §4

HCT116 = experiment: Human tumour xenograft; format: in vivo; set-up: key to Activity: Active: NCI Criterion for activity tumour volume T/C ≦ 40%; Inactive: NCI Criterion for activity tumour volume T/C ≦ 40%; details: HCT116, Colon
Experimental: as §4

[4] = tested on: p53, p21 and Fas in HCT116 (TP53 wild type); experiment: Induction of the p53 pathway, western blotting; format: cell-based, human
From the text: The p53 protein is thought to play a major role in the induction of apoptosis in tumour cells (Levine A J. p53, the cellular gatekeeper for growth and division. Cell. 1997. 88(3):323-331). The p53 protein is a transcriptional activator, which acts in response to DNA damage and other stress pathways, and increases expression of proteins such as Fas and p21^WAF1. […] Products were detected by western blotting.

[5] = P53 not known, tumour volume T/C

Cc1cccc2cc3c(=O)n(C)cc(C(=O)NCCN(C)C)c3nc12 [Formula II, N-[2-(dimethylamino)ethyl]-2,6 dimethyl-1-oxo-1,2-dihydrobenzo[b]-1,6-naphthyridine-4-carboxamide]
maximal reduction of cell survival [1]: 5% | maximal reduction of cell survival [2]: 1% | IC50 (AuxB1): 3.5 nM | IC50 (CHrC5; Cricetulus griseus, CHrC5 (multidrug resistant), continuous exposure): 5.2 nM | Resistance factor (CHrC5; ratio of IC50 values in CHrC5 and AuxB1): 1.5 | melanoma growth [3]: strong inhibition of melanoma growth | IC50 (HCT116p53−): 11 nM | IC50 (JLA): 38 nM | IC50 (Jurkat): 6.7 nM | IC50 (JLD): 53 nM | IC50 (HCT116p53+): 8.6 nM | Activity (Jurkat LA): Active | % control (Jurkat LA; P53 Null, tumour volume T/C): 28% | Activity (H460): Active | % control (H460; P53 W.T., tumour volume T/C): 38% | Activity (NZEN1): Inactive | % control (NZEN1; [5]): 50% | Activity (NZMp1): Active | % control (NZMp1; [5]): <10% | Activity (NZM10): Active | % control (NZM10; P53 W.T., tumour volume T/C): 30% | Activity (NZC1): Active | % control (NZC1; [5]): 38% | Activity (NZMp2): Active | % control (NZMp2; tumour volume T/C): 22% | Activity (NZM3): Active | % control (NZM3; P53 W.T., tumour volume T/C): 38% | Activity (HCT116): Inactive | % control (HCT116; P53 W.T., tumour volume T/C): 70% | induction of p53, p21 and Fas ([4]; 24 hours at higher cell density (approaching confluence)): induced these proteins | induction of p53, p21 and Fas ([4]; 24 hours exposure): much greater response | induction of p53, p21 and Fas ([4]; earlier times (4-10 hours)): induced these proteins
